One assay has as its target α-glucosidase (Saccharomyces cerevisiae, UniProt P53341). The assay can be described thus: Alpha-glucosidase inhibition assay. The assay is classed as biochemical. Particulars: standard acarbose. The source says: (§1) In order to obtain biological profiles, all the derivatives were screened against enzymes α-amylase along and α-glucosidase.
The target of the next assay is T1, α-amylase (Sus scrofa, UniProt P00690).
T1 sequence (P00690 16-511): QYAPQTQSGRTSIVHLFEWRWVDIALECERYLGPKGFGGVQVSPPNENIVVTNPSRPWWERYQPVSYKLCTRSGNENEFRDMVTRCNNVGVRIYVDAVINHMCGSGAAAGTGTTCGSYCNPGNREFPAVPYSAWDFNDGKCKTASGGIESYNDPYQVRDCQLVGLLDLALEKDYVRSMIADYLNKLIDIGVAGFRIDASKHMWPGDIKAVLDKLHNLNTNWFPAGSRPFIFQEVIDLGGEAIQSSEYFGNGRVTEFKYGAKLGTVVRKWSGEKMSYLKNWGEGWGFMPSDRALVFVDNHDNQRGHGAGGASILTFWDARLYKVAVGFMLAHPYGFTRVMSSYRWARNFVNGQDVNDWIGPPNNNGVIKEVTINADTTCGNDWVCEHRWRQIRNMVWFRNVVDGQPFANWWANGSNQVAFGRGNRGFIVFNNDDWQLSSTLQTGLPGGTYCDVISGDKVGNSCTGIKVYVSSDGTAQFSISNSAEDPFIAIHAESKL
The assay can be described thus: Alpha-amylase activity assay (starch, DNS, 540 nm). Conditions: standard acarbose. The assay is classed as biochemical.
Excerpt: as §1

This is an account of results in article PMC11597374, “Synthesis, Characterizations, Anti-Diabetic and Molecular Modeling Approaches of Hybrid Indole-Oxadiazole Linked Thiazolidinone Derivatives” (Pharmaceuticals, 2024).

α-glucosidase, sequence (P53341 whole entry): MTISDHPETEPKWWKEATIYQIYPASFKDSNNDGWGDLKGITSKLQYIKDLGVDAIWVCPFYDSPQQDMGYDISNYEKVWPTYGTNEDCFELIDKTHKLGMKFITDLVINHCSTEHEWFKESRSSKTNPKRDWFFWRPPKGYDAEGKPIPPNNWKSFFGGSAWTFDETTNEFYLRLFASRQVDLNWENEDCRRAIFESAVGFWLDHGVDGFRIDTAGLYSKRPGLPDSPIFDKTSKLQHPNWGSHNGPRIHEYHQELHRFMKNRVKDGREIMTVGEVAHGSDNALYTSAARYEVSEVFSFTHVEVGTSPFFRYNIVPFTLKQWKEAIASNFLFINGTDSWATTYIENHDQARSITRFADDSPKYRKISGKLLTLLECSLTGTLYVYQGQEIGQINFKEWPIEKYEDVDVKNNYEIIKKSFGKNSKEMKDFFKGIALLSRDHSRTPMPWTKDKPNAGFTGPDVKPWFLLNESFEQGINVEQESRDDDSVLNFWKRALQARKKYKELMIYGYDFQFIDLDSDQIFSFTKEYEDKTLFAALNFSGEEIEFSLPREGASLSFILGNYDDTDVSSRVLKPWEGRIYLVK

In the case of `O=C1CS/C(=N\c2nnc(CC(c3c[nH]c4ccccc34)C(F)(F)F)o2)N1c1cccc(Oc2ccccc2)c1` (centres unmarked) [Compound 14], the “Alpha Glucosidase IC50” value at α-glucosidase is “non-active”. Moreover, at α-amylase, the “Alpha Amylase IC50” value is recorded as “non-active”.
